Assay [1] has as its target T1, mushroom TYR (Agaricus bisporus, UniProt C7FF04). Description: biochemical. The conditions noted are these: read-out: % inhibition at 25 μg/mL.
Target sequence in this assay (C7FF04 2-392): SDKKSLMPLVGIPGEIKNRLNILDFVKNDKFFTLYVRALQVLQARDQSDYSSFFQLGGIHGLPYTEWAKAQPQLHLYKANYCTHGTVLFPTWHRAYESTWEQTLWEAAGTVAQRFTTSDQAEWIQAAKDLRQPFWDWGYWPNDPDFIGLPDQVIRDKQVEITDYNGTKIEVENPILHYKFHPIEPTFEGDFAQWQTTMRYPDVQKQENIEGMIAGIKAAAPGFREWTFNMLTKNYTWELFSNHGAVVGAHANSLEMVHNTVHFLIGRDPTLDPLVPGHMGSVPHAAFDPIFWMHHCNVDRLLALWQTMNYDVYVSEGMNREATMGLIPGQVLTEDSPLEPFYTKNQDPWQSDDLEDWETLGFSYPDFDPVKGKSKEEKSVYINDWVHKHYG
In assay [2] the target is T1, mushroom TYR. Description: Kinetic study of tyrosinase inhibitory activity. It is filed as biochemical.
Target sequence in this assay (C7FF04 1-392 limits assumed): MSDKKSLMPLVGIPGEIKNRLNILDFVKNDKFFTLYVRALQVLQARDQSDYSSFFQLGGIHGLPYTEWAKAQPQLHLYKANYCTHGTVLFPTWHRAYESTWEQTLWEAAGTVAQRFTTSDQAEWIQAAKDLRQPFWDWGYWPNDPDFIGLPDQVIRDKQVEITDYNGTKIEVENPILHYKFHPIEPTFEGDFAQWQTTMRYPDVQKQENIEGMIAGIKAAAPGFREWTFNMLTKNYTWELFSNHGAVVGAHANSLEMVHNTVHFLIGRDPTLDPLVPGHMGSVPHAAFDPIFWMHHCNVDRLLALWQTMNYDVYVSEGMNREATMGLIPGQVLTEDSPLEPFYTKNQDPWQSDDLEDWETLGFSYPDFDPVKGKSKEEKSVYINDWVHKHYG

A word on the Ki: it is the dissociation constant of the complex between target and ligand, obtained from inhibition or displacement. High values mean lower affinity, low ones higher affinity. For `COc1ccc(C2CC(c3ccc(C)cc3)=Nc3ccccc3S2)cc1OC` (stereo not drawn) [compound 2, 2-(3,4-dimethoxyphenyl)-4-(p-tolyl)-2,3-dihydrobenzo[b][1,4]thiazepine], the inhibition at 25 µg/mL on mushroom TYR [1] amounted to 89 ± 3%. In addition, the Ki at mushroom TYR [2] turned out to be 1010 nM. The inhibition type result at mushroom TYR [2] (diphenolase activity, L-DOPA oxidation, Lineweaver–Burk plots) is “mixed-type inhibition”.

The values above are taken from paper PMC10193543 (ACS Omega, 2023).
